The record followed here is patent US10414739B2, “Compounds as inhibitors of the YAP/TAZ-TEAD interaction and their use in the treatment of malignant mesothelioma” (INVENTIVA, priority 2015, dated 2019).

In general, inhibition refers to how much of the control response was suppressed. Read a high inhibition as strong suppression. By pIC50 is commonly meant the negative decadic logarithm of the IC50, by convention in mol/L. Read a high pIC50 as a low IC50. One may read the melting point as the temperature of the solid-liquid transition.

Data set [1] has as its system YAP-TEAD interaction in co-transfected HEK293 cells. The data set is described as follows: Cell-based TEAD-GAL4 transactivation assay (luciferase reporter). The conditions noted are these: Homo sapiens, HEK293 co-transfected with TEAD1-Gal4, YAP mutant (S127A, S397A) and reporter, 24 h. The protocol:
Effect of Compounds on the Cell-Based TEAD-GAL4 Transactivation Assay
(§1) To identify inhibitors of YAP-TEAD interaction, a transient transactivation assays was carried out into HEK293 cell line (HEK293 GripTite™ 293 MSR (Invitrogen R795-07)) using plasmids containing the full length TEAD1 sequences, the full length YAP mutant (S127A, S397A) and a luciferase gene reporter. All expression constructs were performed into pSG5 backbone plasmid in which the SV40 promoter was replaced by the CMV promoter. The TEAD1 construct was prepared by cloning the full length human TEAD1 cDNA in fusion with the Gal4 DNA Binding Domain (AA 1-148) into pSG5_CMV to create the TEAD1(FL)_hum_pSG5Gal4_CMV. The full length YAP mutant (S127A, S397A) was also cloned into pSG5_CMV to create the YAP(FL)_hum_pSG5_mutS127A_S397A_CMV. The reporter plasmid GAL4(5×RE)_TK(−105/+56)_pGL3-Basic contains 5 copies of the GAL4 responsive element (5′-TCGGAGGACAGTACTCC-3′) upstream of the thymidine kinase (TK) promoter (−105/+56) inserted in a pGL3-Basic vector. To evaluate the selectivity of our compounds in blocking the YAP-TEAD interaction, a counter-screening protein-protein interaction transactivation assays was also established. Briefly, two other expression plasmids, the pBD-P53 which express the P53 (AA 72-390) in fusion with Gal4 and the pAD-SV40T which express the SV40 large T antigen (AA 84-708,AgT), were created. […] Twenty-four hours later, the luciferase activity was determined after addition of 100 μl of Steady Glo™ luciferase assay system (Promega E2550) according to the manufacturer's directions. Luciferase activity in cell extracts is measured by reading luminescence using the Envision device.
The cellular response was determined by fitting the concentration response curves using a 3-parameter curve fit equation and determining the concentration that inhibited the luciferase activity by 50%.
Background: A reporter such as luciferase makes a cellular process visible.

Data set [2] has as its system NCI-H2052 mesothelioma cell line. The data set is described as follows: Inhibition of malignant mesothelioma tumor cell growth (EdU proliferation). The data set is classed as cell-based. The conditions noted are these: NCI-H2052 (NF2 mutated), 1% serum. The protocol: Inhibition of Malignant Mesothelioma Tumor Cell Growth
The tumor cell growth inhibitory activity of the YAP-TEAD interaction inhibitors was evaluated in NCI-H2052 mesothelioma cell line harboring a NF2 mutation. This cell line was selected based on its mutational status and the ability of a siRNA directed against YAP, TAZ or TEAD1-4 to inhibit cell proliferation. The nuclear localization of YAP at confluence was also taken into account. Based on these observations we were able to classify several “YAP dependent cells” where YAP is clearly nuclear and in which a cell growth inhibition is observed by using siRNA (NCI-H2052, SKOV-3, ACHN, A549) and the “YAP independent cells” where YAP is preferentially located in the cytoplasm and in which no inhibition of cell growth is observed by using a siRNA (SW620, Met-5a). […] After one day growth in the starvation medium, cells were incubated with compounds. The starting concentration was 30 μM and serial dilutions in DMSO and medium were performed until […] to achieve a final DMSO concentration of 0.5%. The cells were then allowed to grow for 3 days, and then, EdU (Invitrogen, Molecular Probe) was added in each well at a final concentration of 10 μM and the cells were returned to the incubator for additional 24 h. Starvation medium was removed and 100 μl of PFA 4% containing Hoechst dye was adding in each well to fix the cells. Plates were then incubated at room temperature for 15 minutes, washed twice with PBS and the cells were permeabilized by adding 100 μl per well of triton-100 containing 0.3% BSA. […] Image acquisition was performed using the ImageXpress Micro and analysed using the MetaXpress software (Molecular Device). Results were expressed as a percent of inhibition (%) of the cell proliferation values obtained with 0.5% DMSO treatment alone. The cellular response was determined by fitting the concentration response curves using a 3 parameter curve fit equation and determining the concentration that inhibited cell growth between 50% and 100%.

Data set [3] concerns the target T1, YAP-TEAD interaction (human YAP2-His6 (50-114) / human TEAD1-GST (209-426)) (Homo sapiens, UniProt P28347).
T1 construct: GST-TEAD1 (209-426) produced in E. coli; made in house; host or cells: E. coli
The data set is described as follows: YAP-TEAD AlphaLISA assay. The data set is classed as binding. Particulars: for Emax: 2 h, maximal % inhibition, read-out: Max Act.; for Emax / pIC50: YAP-TEAD AlphaLISA; for pIC50: 2 h equilibration at room temperature. The protocol:
YAP-TEAD AlphaLISA Assay for IC50 Value Determination.
YAP-TEAD binding and inhibition was assessed by monitoring the engagement of YAP2 peptide (human YAP2-His6 (50-114) produced in E. coli) with TEAD (human TEAD1-GST (GST-TEAD1 (209-426) produced in E. coli) using the AlphaLisa technology (Perkin-Elmer). Specifically, in a 384 well (Axygen) 5 μl of compounds were dispensed in 100% DMSO following a semi log serial dilution, with a top concentration of […] (10 concentrations). A ‘3 partners solution’ was prepared by mixing AlphaScreen Glutathione Donor beads 15 μg/ml (PerkinElmer), Anti-6×His AlphaLisA Acceptor beads 15 μg/ml (PerkinElmer) and Human YAP2 9 nM in 100 mM NaCl, 25 mM Hepes, 0.1% BSA, 0.5% NoNidet®P40 buffer. In the 384 assay plate (Proxiplate, Perkin-Elmer)) 2 μl of compound at each concentration, 6 μl of buffer, 6 μl of hTEAD1-GST 9 nM and 6 μl of ‘3 partner solution’ were mixed. After 2 h equilibration at room temperature in the dark the plates were read on an Envision instrument (Excitation @ 680 nm/Emission @ 570 nm, Perkin Elmer).
Results were expressed as % inhibition=100×((HighControl−Cpd)/(HighControl−LowControl)), were High control is the maximum response obtained with all components and Low control is the basal response obtained with all components without GST-Tead1.
Cpd is the response obtained for test compounds.
IC50 (half maximal inhibitory concentration) was determined by fitting the concentration response curves using a 3-parameter curve fit equation and determining concentration corresponding to 50% inhibition.
Background: Bead proximity is the source of the signal in Alpha formats.

In a further data set the test system is SW620 cell line. Nature of the data set: Cell proliferation in YAP-independent cell line (EdU). The data set is classed as cell-based. On the procedure: The tumor cell growth inhibitory activity of the YAP-TEAD interaction inhibitors was evaluated in NCI-H2052 mesothelioma cell line harboring a NF2 mutation. This cell line was selected based on its mutational status and the ability of a siRNA directed against YAP, TAZ or TEAD1-4 to inhibit cell proliferation. The nuclear localization of YAP at confluence was also taken into account. Based on these observations we were able to classify several “YAP dependent cells” where YAP is clearly nuclear and in which a cell growth inhibition is observed by using siRNA (NCI-H2052, SKOV-3, ACHN, A549) and the “YAP independent cells” where YAP is preferentially located in the cytoplasm and in which no inhibition of cell growth is observed by using a siRNA (SW620, Met-5a). […] After one day growth in the starvation medium, cells were incubated with compounds. The starting concentration was 30 μM and serial dilutions in DMSO and medium were performed until […] to achieve a final DMSO concentration of 0.5%. The cells were then allowed to grow for 3 days, and then, EdU (Invitrogen, Molecular Probe) was added in each well at a final concentration of 10 μM and the cells were returned to the incubator for additional 24 h. Starvation medium was removed and 100 μl of PFA 4% containing Hoechst dye was adding in each well to fix the cells. Plates were then incubated at room temperature for 15 minutes, washed twice with PBS and the cells were permeabilized by adding 100 μl per well of triton-100 containing 0.3% BSA. After 20 minutes cells were washed with PBS and the EdU detection was performed according to the instructions of the manufacturer. Image acquisition was performed using the ImageXpress Micro and analysed using the MetaXpress software (Molecular Device). Results were expressed as a percent of inhibition (%) of the cell proliferation values obtained with 0.5% DMSO treatment alone. The cellular response was determined by fitting the concentration response curves using a 3 parameter curve fit equation and determining the concentration that inhibited cell growth between 50% and 100%.

Data set [4] has as its system P53 / SV40 large T antigen (AgT) interaction in HEK293 cells. Nature of the data set: Counter-screening protein-protein interaction transactivation assay (P53+AgT). It is filed as cell-based. The conditions noted are these: HEK293, same conditions as TEAD-GAL4 assay. On the procedure:
as §1, with “created. HEK293 cells were seeded at 5×10^4 cells/well in 96 well plates (assay plates) in DMEM medium containing 4.5 g/L D-glucose, 10% high inactivated (HI) fetal bovine serum 1% Glutamax, 1% non-essential amino acid and 1% sodium pyruvate and 0.5% penicillin/streptomycin 37° C. in a humidified atmosphere of 8% CO2.” for “created.”

pIC50: −log10 of the molar value.

T1 sequence (P28347 209-426): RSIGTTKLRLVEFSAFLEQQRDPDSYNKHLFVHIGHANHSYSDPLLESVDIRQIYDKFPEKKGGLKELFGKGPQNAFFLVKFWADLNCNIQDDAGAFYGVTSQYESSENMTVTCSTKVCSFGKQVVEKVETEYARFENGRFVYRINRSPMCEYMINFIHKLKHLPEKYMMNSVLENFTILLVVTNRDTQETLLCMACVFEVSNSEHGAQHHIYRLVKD

Take `COCCN(/N=C/c1ccc(O)c(OC)c1)C1=NS(=O)(=O)c2ccccc21` [Example 7, 4-[(E)-[(1,1-dioxo-1,2-benzothiazol-3-yl)-(2-methoxyethyl)hydrazono]-methyl]-2-methoxy-phenol]: the inhibition at 30 µM in data set [1] is 50 to 75%. Besides, the “inhibition of cell proliferation” value in data set [2] is given as “inhibited”. In data set [3], the Emax was determined as 94% and the negative logarithm of the IC50 (pIC50) is 5.34. Also, the “effect on cell proliferation” value in the data set with SW620 cell line is “without showing any effect”. The “inhibitory effect in counter screening assay (P53+AgT)” value (“inhibitory effect” for short) in data set [4] is on record as “no inhibitory effect was observed”.

Turning to `COc1cc(/C=N/N(C)C2=NS(=O)(=O)c3ccccc32)ccc1O` [Example 1, 4-[(E)-[(1,1-dioxo-1,2-benzothiazol-3-yl)-methyl-hydrazono]methyl]-2-methoxy-phenol], the melting point stood at 218 °C. For the same compound, the inhibition at 30 µM in data set [1] is 50 to 75%. In data set [2], the “inhibition of cell proliferation” value is recorded as “inhibited”. Moreover, in data set [3], the Emax turned out to be 92% and the pIC50 is 6.05. This compound yielded an inhibition at 0.886 µM in data set [3] (at 0.886 μM (so in the source)) of 92%. Also, the “effect on cell proliferation” value with SW620 cell line is reported as “without showing any effect”. The “inhibitory effect” value in data set [4] is reported as “no inhibitory effect was observed”.

As to `COc1cc(/C=N/N(CCO)C2=NS(=O)(=O)c3ccccc32)ccc1O` [Example 2, 4-[(E)-[(1,1-dioxo-1,2-benzothiazol-3-yl)-(2-hydroxyethyl)-hydrazono]methyl]-2-methoxy-phenol], the inhibition at 30 µM in data set [1] was in the range of 50 to 75%. The “inhibition of cell proliferation” value in data set [2] was “inhibited”. Further, in data set [3], the Emax was 93% and the pIC50 was 6.02. For the same compound, the “effect on cell proliferation” value in the data set on SW620 cell line was “without showing any effect”. In addition, the “inhibitory effect” value in data set [4] was “no inhibitory effect was observed”.
